From patent US6548494B1, “Tricyclic inhibitors of poly(ADP-ribose) polymerases” (Agouron Pharmaceuticals, Inc., priority 1999, dated 2003)
“And” between values parts separate entries of the source, which are not always exact repeats. Equal values may be shown once. Where a name gives a salt, the structure may show the parent alone.

Target: purified PARP protein (Homo sapiens, UniProt P09874)
Assay: PARP enzyme inhibition assay
Type: biochemical
Conditions: 20 nM purified PARP (5 nM for tight-binding inhibitors), 500 μM NAD+, 25° C.; several values in one cell = repeat determinations; read-out: Inhibition Constant Ki

Sequence of purified PARP protein (P09874 whole entry): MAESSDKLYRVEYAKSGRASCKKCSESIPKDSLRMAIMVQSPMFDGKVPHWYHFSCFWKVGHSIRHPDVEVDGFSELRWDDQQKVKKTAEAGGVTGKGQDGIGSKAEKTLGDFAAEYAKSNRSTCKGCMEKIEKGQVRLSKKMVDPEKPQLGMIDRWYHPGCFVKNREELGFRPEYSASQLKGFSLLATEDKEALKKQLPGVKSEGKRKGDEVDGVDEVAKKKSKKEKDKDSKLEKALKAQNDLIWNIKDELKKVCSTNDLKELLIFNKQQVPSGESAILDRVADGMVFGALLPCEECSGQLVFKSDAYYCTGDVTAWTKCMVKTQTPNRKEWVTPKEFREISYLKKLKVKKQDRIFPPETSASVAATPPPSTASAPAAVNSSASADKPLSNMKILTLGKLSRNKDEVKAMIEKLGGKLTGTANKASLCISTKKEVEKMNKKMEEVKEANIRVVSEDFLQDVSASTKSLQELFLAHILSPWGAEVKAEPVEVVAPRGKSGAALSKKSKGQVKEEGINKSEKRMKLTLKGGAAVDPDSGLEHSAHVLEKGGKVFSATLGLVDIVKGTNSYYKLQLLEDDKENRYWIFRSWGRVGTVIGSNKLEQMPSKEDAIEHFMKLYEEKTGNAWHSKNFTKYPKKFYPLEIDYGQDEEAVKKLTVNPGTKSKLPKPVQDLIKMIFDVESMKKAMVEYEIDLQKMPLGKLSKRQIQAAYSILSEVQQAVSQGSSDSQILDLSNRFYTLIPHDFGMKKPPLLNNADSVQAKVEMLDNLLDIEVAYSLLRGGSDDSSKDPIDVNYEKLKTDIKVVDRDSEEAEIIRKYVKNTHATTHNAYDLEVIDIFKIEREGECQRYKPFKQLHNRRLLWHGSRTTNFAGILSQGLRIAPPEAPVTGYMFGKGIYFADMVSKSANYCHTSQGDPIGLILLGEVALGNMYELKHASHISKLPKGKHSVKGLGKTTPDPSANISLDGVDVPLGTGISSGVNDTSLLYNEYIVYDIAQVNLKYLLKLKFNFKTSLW

SMILES	Ki
O=C1NCCn2c(-c3ccc(CN4CCC(O)C4)cc3)nc3cc(F)cc1c32 (centres unmarked) [Example 172, 4-Fluoro-1-[4-(3-hydroxy-pyrrolidin-1-ylmethyl)-phenyl]-8,9-dihydro-7H-2,7,9a-triaza-benzo[cd]azulen-6-one]	4.6 nM
CC(C)CN(C)Cc1ccc(-c2nc3cccc4c3n2CCNC4=O)cc1 [Example 187, 1-{4-[(Isobutyl-methyl-amino)-methyl]-phenyl}-8,9-dihydro-7H-2,7,9a-triaza-benzo[cd]azulen-6-one]	7 nM
CN(C)CCCOc1ccc(-c2nc3cccc4c3n2CCNC4=O)cc1 [Example 121, 1-[4-(3-Dimethylamino-propoxy)-phenyl]-8,9-dihydro-7H-2,7,9a-triaza-benzo[cd]azulen-6-one]	4 nM
Cc1c(-c2cccc(C(F)(F)F)c2)n2c3c(cccc13)C(=O)NCC2 [Example 52, 6-(3-Trifluoromethyl-phenyl)-7-methyl-3,4-dihydro-2H-[1,4]diazepino[6,7,1-hi]indol-1-one]	79 nM
O=C1NCCn2c(-c3ccc(CNCCc4ccccn4)cc3)nc3cccc1c32 [Example 204, 1-{4-[(2-Pyridin-2-yl-ethylamino)-methyl]-phenyl}-8,9-dihydro-7H-2,7,9a-triaza-benzo[cd]azulen-6-one]	7.9 nM
N#Cc1ccc(-c2nc3cccc4c3n2CCNC4=O)cc1 [Example 227, 4-(6-oxo-6,7,8,9-Tetrahydro-2,7,9a-triaza-benzo[cd]azulen-1-y)-benzonitrile]	2.2 nM
CCCN(CCC)Cc1ccc(-c2nc3cccc4c3n2CCNC4=O)cc1 [Example 190, 1-(4-Dipropylaminomethyl-phenyl)-8,9-dihydro-7H-2,7,9a-triaza-benzo[cd]azulen-6-one]	8.1 nM
N#CCc1ccc(-c2nc3cccc4c3n2CCNC4=O)cc1 [Example 242, [4-(6-oxo-6,7,8,9-Tetrahydro-2,7,9a-triaza-benzo[cd]azulen-1-yl)-phenyl]-acetonitrile]	3.4 nM
C[C@@H]1Cn2c(-c3ccc(Cl)cc3)nc3cccc(c32)C(=O)N1 [Example 236, (R)-1-(4-Chloro-phenyl)-8-methyl-8,9-dihydro-7H-2,7,9a-triaza-benzo[cd]azulen-6-one]	113 nM
O=C1NCCn2c(-c3ccc(CNC4CCC4)cc3)nc3cccc1c32 [Example 188, 1-(4-Cyclobutylaminomethyl-phenyl)-8,9-dihydro-7H-2,7,9a-triaza-benzo[cd]azulen-6-one]	4.8 nM
O=C1NCCn2c(C3CCCCC3)nc3cccc1c32 [Example 24, 1-Cyclohexyl-8,9-dihydro-7H-2,7,9a-triaza-benzo[cd]azulen-6-one]	29 nM
O=C1N[C@@H](CO)Cn2c(-c3ccc(CN4CCCC4)cc3)nc3cccc1c32 [Example 241, (R)-8-Hydroxymethyl-1-(4-pyrrolidin-1-ylmethyl-phenyl)-8,9-dihydro-7H-2,7,9a-triaza-benzo[cd]azulen-6-one]	6.8 nM
CC(C)CC(c1ccc(-c2nc3cccc4c3n2CCNC4=O)cc1)N(C)C (centres unmarked) [Example 231, 1-[4-(Dimethylamino-methyl-butyl)-phenyl]-8,9-dihydro-7H-2,7,9a-triaza-benzo[cd]azulen-6-one]	6.9 nM
O=C1NCCn2c(-c3ccc(Cn4ccnc4)cc3)nc3cccc1c32 [Example 213, 1-(4-Imidazol-1-ylmethyl-phenyl)-8,9-dihydro-7H-2,7,9a-triaza-benzo[cd]azulen-6-one]	7.4 nM
C[C@H]1Cn2c(-c3ccc(Cn4cccc4)cc3)nc3cccc(c32)C(=O)N1 [Example 234, (S)-8-Methyl-1-(4-pyrrol-1-ylmethyl-phenyl)-8,9-dihydro-7H -2,7,9a-triaza-benzo[cd]azulen-6-one]	8.7 nM
O=Cc1c(-c2ccc(Cl)cc2)n2c3c(cccc13)C(=O)NCC2 [Example 38, 6-(4-Chloro-phenyl)-1-oxo-1,2,3,4-tetrahydro-[1,4]diazepino[6,7,1-hi]indole-7-carboxaldehyde]	43 nM
O=C1NCCn2c(-c3ccc(CO)cc3)nc3cccc1c32 [Example 58a, 1-(4-hydroxymethyl-phenyl)-8,9-dihydro-7H-2,7,9a-triaza-benzo[cd]azulen-6-one]	4.2 nM
O=C1N[C@@H](COCc2ccccc2)Cn2c(-c3ccc(Cl)cc3)nc3cccc1c32 [Example 237b, (R)-8-Benzyloxymethyl-1-(4-chloro-phenyl)-8,9-dihydro-7H-2,7,9a-triaza-benzo[cd]azulen-6-one]	30 nM
O=C1NCCn2c(-c3ccc(CN4CCCC(CO)C4)cc3)nc3cccc1c32 (centres unmarked) [Example 175, 1-[4-(3-Hydroxymethyl-piperidin-1-ylmethyl)-phenyl]-8,9-dihydro-7H-2,7,9a-triaza-benzo[cd]azulen-6-one]	6.6 nM
O=C1NCCn2c(-c3ccc(CN4CCC[C@@H]4CO)cc3)nc3cccc1c32 [Example 173, 1-[4-((2R)-2-Hydroxymethyl-pyrrolidin-1-ylmethyl)-phenyl]-8,9-dihydro-7H-2,7,9a-triaza-benzo[cd]azulen-6-one]	6.3 nM
Cc1ccc(CNCc2ccc(-c3nc4cccc5c4n3CCNC5=O)cc2)o1 [Example 195, 1-(4-{[(5-Methyl-furan-2-ylmethyl)-amino]-methyl}-phenyl)-8,9-dihydro-7H-2,7,9a-triaza-benzo[cd]azulen-6-one]	4.7 nM and 5.9 nM

SMILES	Ki
CC(C)(C)OC(=O)N1CCCC(c2ccc(-c3nc4cccc5c4n3CCNC5=O)cc2)C1 (centres unmarked) [Example 143, 3-[4-(6-oxo-6,7,8,9-Tetrahydro-2,7,9a-triaza-benzo[cd]azulen-1-yl)-phenyl]-piperidine-1-carboxylic Acid t-Butyl Ester]	22 nM
CN(CCc1ccccc1)Cc1ccc(-c2nc3cccc4c3n2C[C@H](CO)NC4=O)cc1 [Example 239, (R)-8-Hydroxymethyl-1-{4-[(methyl-phenethyl-amino)-methyl]-phenyl}-8,9-dihydro-7H-2,7,9a-triaza-benzo[cd]azulen-6-one]	7.8 nM
N/N=C(\N)c1c(-c2ccc(F)cc2)n2c3c(cccc13)C(=O)NCC2 [Example 156, 7-Formyl-6-(4-fluorophenyl)-1-oxo-3,4-dihydro-[1,4]diazepino[6,7,1-hi]indole Amidrazone Hydrochloride]	57 nM
O=C1N[C@@H](CO)Cn2c(-c3ccc(Cl)cc3)nc3cccc1c32 [Example 237, (R)-1-(4-Chloro-phenyl)-8-hydroxymethyl-8,9-dihydro-7H-2,7,9a-triaza-benzo[cd]azulen-6-one]	5 nM and 6 nM
O=C1NCCn2c(-c3ccc(C(O)Cc4ccccc4)cc3)nc3cccc1c32 (centres unmarked) [Example 247a, 1-[4-(1-Hydroxy-2-phenyl-ethyl)-phenyl]-8,9-dihydro-7H-2,7,9a-triaza-benzo[cd]azulen-6-one]	10 nM
C[N+](C)([O-])Cc1ccc(-c2nc3cccc4c3n2CCNC4=O)cc1 [Example 131]	22 nM
O=C1NCCn2c(S)nc3cccc1c32 [Example 28, 1-Mercapto-8,9-dihydro-7H-2,7,9a-triaza-benzo[cd]azulen-6-one]	10 nM
O=C1NCCn2c(-c3ccc(CNCc4cccs4)cc3)nc3cccc1c32 [Example 189, 1-(4-{[(Thiophen-2-ylmethyl)-amino]-methyl}-phenyl)-8,9-dihydro-7H-2,7,9a-triaza-benzo[cd]azulen-6-one]	5.1 nM
COc1ccc(C2CNC(=O)c3cccc4[nH]c(=O)n2c34)cc1 (racemic) [Example 53, (RS)-(±)-9-(4-Methoxy-phenyl)-8,9-dihydro-2H,7H-2,7,9a-triaza-benzo[cd]azulene-1,6-dione]	1800 nM
CC(CNCc1ccc(-c2nc3cccc4c3n2CCNC4=O)cc1)c1ccccc1 (centres unmarked) [Example 200, 1-{4-[(2-Phenyl-propylamino)-methyl]-phenyl}-8,9-dihydro-7H-2,7,9a-triaza-benzo[cd]azulen-6-one]	6 nM
Nc1nc2cccc3c2n1CCNC3=O [Example 146, 1-Amino-8,9-dihydro-7H-2,7,9a-triaza-benzo[cd]azulen-6-one Hydrochloride]	35 nM
O=C1NCCn2c(-c3ccc(CNCCCc4ccccc4)cc3)nc3cccc1c32 [Example 201, 1-{4-[(3-Phenyl-propylamino)-methyl]-phenyl}-8,9-dihydro-7H-2,7,9a-triaza-benzo[cd]azulen-6-one]	5.8 nM
COc1ccc(C2CNC(=O)c3cccc4nc(-c5ccc(Cl)cc5)n2c34)cc1 (racemic) [Example 54, (RS)-(±)-1-(4-Chloro-phenyl)-9-(4-methoxy-phenyl)-8,9-dihydro-7H-2,7,9a-triaza-benzo[cd]azulen-6-one]	600 nM
O=C1NCCn2c(-c3ccc(Cn4cccc4)cc3)nc3cccc1c32 [Example 220, 1-(4-Pyrrol-1-ylmethyl-phenyl)-8,9-dihydro-7H-2,7,9a-triaza-benzo[cd]azulen-6-one]	4 nM
CC(C)CC(c1ccc(-c2nc3cccc4c3n2CCNC4=O)cc1)N1CC=CC1 (centres unmarked) [Example 229, 1-{4-[1-(2,5-Dihydro-pyrrol-1-yl)-3-methyl-butyl]-phenyl}-8,9-dihydro-7H-2,7,9a-triaza-benzo[cd]azulen-6-one]	5.3 nM and 6.8 nM
CC1CCC(C)N1Cc1ccc(-c2nc3cccc4c3n2CCNC4=O)cc1 (centres unmarked) [Example 214, 1-[4-(2,5-Dimethyl-pyrrolidin-1-ylmethyl)-phenyl]-8,9-dihydro-7H-2,7,9a-triaza-benzo[cd]azulen-6-one]	8.3 nM
COC(=O)c1cn2c3c(cccc13)C(=O)NCC2 [Example 44]	900 nM
CN(CCc1ccccc1)Cc1ccc(-c2nc3cccc4c3n2CCNC4=O)cc1 [Example 179, 1-{4-[(Methyl-phenethyl-amino)-methyl]-phenyl}-2,7,8,9-tetrahydro-2,7,9a-triaza-benzo[cd]azulen-6-one]	5.6 nM
O=C1NCCn2c(-c3ccc(-c4ccc(Cl)cc4)o3)nc3cccc1c32 [Example 96, 1-[5-(4-Chlorophenyl)-furan-2-yl]-8,9-dihydro-7H-2,7,9a-triaza-benzo[cd]azulen-6-one]	10 nM
CN(Cc1ccccc1)Cc1ccc(-c2nc3cccc4c3n2CCNC4=O)cc1 [Example 199, 1-[4-(Benzyl-methyl-amino-methyl)-phenyl]-8,9-dihydro-7H-2,7,9a-triaza-benzo[cd]azulen-6-one]	6.8 nM
